Earlier results as cited in US20040259850A1, “Method for treating or preventing symptoms of hormonal variation including hot flashes” (priority 2001, published 2004).

How the values were obtained:
hot flashes in patients = conditions: cited from earlier work; for amelioration of hot flashes, general statement: comparison of clonidine with estrogen
[1] = as stated in the background; cited from earlier work

| Compound | amelioration of hot flashes, general statement (hot flashes in patients) | side effects [1] | other results |
| --- | --- | --- | --- |
| CN1CCN2c3ncccc3Cc3ccccc3C2C1 (centres unmarked) [Mirtazapine] | – | – | effect on hot flushes and perspiration bouts (hot flashes in patients; four case reports (Waldinger et al. 2000)): appears to have an ameliorating effect |
| Clc1cccc(Cl)c1N=C1NCCN1 [clonidine] | only mildly ameliorates hot flashes | – | effect on frequency and severity of hot flashes (hot flashes in patients; transdermal, tamoxifen-treated women (Goldberg et al. 1994)): only a moderate effect |
| CC(=O)O[C@]1(C(C)=O)CC[C@H]2[C@@H]3C=C(C)C4=CC(=O)CC[C@]4(C)[C@H]3CC[C@@]21C [megestrol acetate] | – | chronic adrenal insufficiency can be a side effect | effect on frequency of hot flashes (hot flashes in patients; low dose oral, men and women, short term study (Loprinzi et al. 1994)): reduce the frequency of hot flashes |
| COc1ccc(C(CN(C)C)C2(O)CCCCC2)cc1 (centres unmarked) [venlafaxine] | – | mouth dryness, decreased appetite, nausea and constipation | effect on hot flashes (hot flashes in patients; early studies, survivors of breast cancer (Loprinzi et al. 2000)): effective non-hormonal method to diminish hot flashes |
| estrogen | can virtually eliminate them | – | – |
